This test concerns human PBMN. The test can be described thus: LPS-stimulated release of cytokines other than TNF by PBMN, LPS plus composition. It is filed as cell-based. The conditions noted are these: LPS (50 ng/ml) alone. As for the experimental part: In the studies of TNF, whole blood was drawn from 5 healthy subjects into heparinized Vacutainer tubes. Peripheral blood mononuclear cells (PBMNs) were isolated by gradient centrifugation on Ficoll-Hypaque (Pharmacia). The PBMN were washed twice with phosphate buffered saline (PBS), counted and resuspended in RPMI 1640 culture medium (Gibco Labs) at a concentration of 10^6 cells/0.5 ml. These cells were cultured in 24 well, flat-bottomed tissue culture plates (Falcon, Becton, Dickinson). […] The total volume was then made up to 1 ml/well with RPMI. As control, PBS was used instead of composition. The cells were cultured for 2, 6, 24, 48 and 72 hours at 37° C. in a humidified 5% CO2 incubator. At the end of each incubation period, the cells were harvested and cell free culture fluids were obtained by centrifugation at 9000 rpm for 10 minutes. The samples were then stored at −70° C. until ELISA for cytokines was carried out (within 2 weeks).
Experiments were performed to determine whether the composition of the invention would impair LPS-stimulated release. […] The effects on the other cytokines IL-6, IL-8, IFN-gamma and GM-CSF were not as marked. However, in no instance did the compositions tested augment the effect of LPS stimulated release of cytokines.

The values below come from patent US20080279957A1, “Immunomodulating compositions from bile” (Lorus Therapeutics Inc., priority 2000, published 2008).

As to Lipopolysaccharide [LPS], the GM-CSF released worked out at 54 ± 65, the IFN-γ released came to 30 ± 24, the IL-6 released was determined as 2320 ± 1081 and the IL-8 released amounted to 118 ± 62 ng/mL. The IL-16 released was 1314 ± 723. For the same substance, for the setting “six patients”, the IL-1α released is 129 ± 135.
